Where a name gives a salt, the structure may show the parent alone.
Tested on: human basophils
Experiment: Inhibition of histamine release from immunologically stimulated human basophils
Format: cell-based
Details: Homo sapiens, concentration causing 50% inhibition of histamine release, by linear regression; active if IC50 ≦ 48 µM; read-out: IC50
Method: The blood is allowed to sediment at room temperature in two 50 ml polycarbonate centrifuge tubes until a sharp interface develops between the red cells and plasma (60-90 minutes). The plasma (top) layer from each tube is withdrawn by pipet and transferred to respective 50 ml polycarbonate tubes. The plasma is centrifuged for 8 minutes at 110X G at 4°C. The supernatant is carefully poured off as completely as possible and the cell button is resuspended in 2-3 ml of Tris-A buffer using a siliconized Pasteur pipet. The resuspension is accomplished by drawing the liquid gently in an out of the pipet, with the tip below the liquid until an even suspension of cells is obtained. Sufficient Tris-A buffer is then added to bring the volume in the tube to about 45 ml and the tube is centrifuged at 110X G for 8 minutes at 4°C. The supernatant is poured off and the cell button is resuspended and centrifuged as described above. The supernatant is poured off and the cell button is suspended in 2-3 ml of Tris-ACM buffer to make the final volume sufficient to allow addition to the reaction tubes. Reaction tubes containing anti-IgE or antigens, either alone or with test compound in a total volume of 0.2 ml are prepared and placed in a 37°C bath. The cells are warmed to 37°C and frequently swirled to ensure an even suspension, while 1.0 ml aliquots are added to each reaction tube. The tubes are then incubated for 60 minutes at 37°C, vortexing the tubes gently every 15 minutes to keep the cells evenly suspended. When the reaction is complete, the tubes are centrifuged at 4°C for 10 minutes at 1500 rpm to sediment the cells. […] Blanks and totals are included in each test. The blanks have cells and all reagents except antigen or anti-IgE. The totals contain 0.24 ml of 8% perchloric acid, one ml of cells and 0.2 ml of buffer. All samples are then centrifuged to remove the precipitate protein. […] The automated system consists of the following Technicon Autoanalyzer II components Sampler IV, Dual-Speed Proportioning Pump III, Fluoronephelometer with a narrow pass primary filter 7-60 and a secondary filter 3-74, Recorder, and Digital Printer. The manifold used is the one described by Siraganian vide supra, with the following modifications: the dialyzer is omitted; all pumping tubes pass through a single proportioning pump with large capacity and twice the volume of sample is taken for anaylsis. The automated chemistry consists of the following steps: Extraction from alkaline saline into butanol, back extraction into dilute hydrochloric acid by addition of heptane, reaction of histamine with o-phthaldialdehyde (OPT) at high pH and conversion of the OPT adduct to a stable fluorophore with phosphoric acid. The reaction product is then passed through the fluorometer. The full scale response is adjusted to 50 ng histamine base with a threshold sensitivity of approximately 0.5 ng. The instrument blank (wash) is substracted from the ng histamine of each sample. Then the ng histamine of each sample is divided by the mean of the three totals (cells lysed with perchloric acid) to obtain percent release. Control samples contain antigen but no test compound. Blank (or spontaneous release) samples contain neither antigen nor test compound. The mean of the blanks (three replicates) is subtracted from the percent release for controls and test compounds.

| IC50 | Structure (SMILES) |
| --- | --- |
| 700 nM | NS(=O)(=O)c1cccc(Nc2nccc(-c3ccccn3)n2)c1 [3-[[4-(2-Pyridinyl)-2-pyrimidinyl]amino]benzenesulfonamide] |
| 200 nM | Nc1cccc(Nc2nccc(-c3ccccn3)n2)c1 [N-[4-(2-Pyridinyl)-2-pyrimidinyl]-1,3-benzenediamine] |
| 2100 nM | CN(C)c1ccc(Nc2nccc(-c3ccsc3)n2)cc1 [N,N-Dimethyl-N'-[4-(3-thienyl)-2-pyrimidinyl]-1,4-benzenediamine] |
| 800 nM | CCN(CC)CCNC(=O)c1ccc(Nc2nccc(-c3cccnc3)n2)cc1 [N-[2-(Diethylamino)ethyl]-4-[[4-(3-pyridinyl)-2-pyrimidinyl]amino]benzamide] |
| 5000 nM | CC(=O)Nc1cccc(Nc2nccc(-c3cccnc3)n2)c1 [N-[3-[[4-(3-Pyridinyl)-2-pyrimidinyl]amino]-phenyl]acetamide] |
| 4300 nM | Cc1cc(C)cc(Nc2nccc(-c3cccs3)n2)c1 [N-(3,5-Dimethylphenyl)-4-(2-thienyl)-2-pyrimidinamine] |
| 700 nM | CC(=O)Nc1ccc(Nc2nccc(-c3ccco3)n2)cc1 [N-[4-[[4-(2-Furanyl)-2-pyrimidin-yl]amino]phenyl]acetamide] |
| 5300 nM | CC(=O)Nc1ccc(Nc2nccc(-c3ccncc3)n2)cc1 [N-[4-[[4-(4-Pyridinyl)-2-pyrimidinyl]amino]-phenyl]acetamide] |
| 31700 nM | c1ccc(Nc2nccc(-c3cccs3)n2)cc1 [N-Phenyl-4-(2-thienyl)-2-pyrimidinamine] |
| 1500 nM | CC(=O)Nc1ccc(Nc2nccc(-c3ccccn3)n2)cc1 [N-[4-[[4-(2-Pyridinyl)-2-pyrimidinyl]amino]-phenyl]acetamide] |
| 1700 nM | CCN(CC)c1ccc(Nc2nccc(-c3cccnc3)n2)cc1 [N,N-Diethyl-N'-[4-(3-pyridinyl)-2-pyrimidinyl]-1,4-benzenediamine] |
| 300 nM | COc1cccc(Nc2nccc(-c3cccnc3)n2)c1 [N-(3-Methoxyphenyl)-4-(3-pyridinyl)-2-pyrimidinamine] |
| 5800 nM | CCOC(=O)COc1ccc(Nc2nccc(-c3ccncc3)n2)cc1 [[4-[[4-Pyridinyl)-2-pyrimidinyl]amino]phenoxy]acetic acid, ethyl ester] |
| 500 nM | CN(C)CCCOc1ccc(Nc2nccc(-c3cccnc3)n2)cc1 [N-[4-[3-(Dimethylamino)propoxy]phenyl]-4-(3-pyridinyl)-2-pyrimidinamine] |
| 600 nM | CN1CCN(c2ccc(Nc3nccc(-c4ccncc4)n3)cc2)CC1 [N-[4-(4-Methyl-1-piperazinyl)phenyl]-4-(4-pyridinyl)-2-pyrimidinamine] |
| 31800 nM | Cc1cc(-c2ccccn2)nc(Nc2ccc(N(C)C)cc2)n1 [N,N-Dimethyl-N'-[4-methyl-6-(2-pyridinyl)-2-pyrimidinyl]-1,4-benzenediamine] |
| 200 nM | CCN(CC)CCOc1ccc(Nc2nccc(-c3ccncc3)n2)cc1 [N-[4-[2-(Diethylamino)ethoxy]phenyl]-4-(4-pyridinyl)-2-pyrimidinamine] |
| 1800 nM | c1ccc(-c2ccnc(Nc3ccc(-n4ccnc4)cc3)n2)nc1 [N-[4-(1H-Imidazol-1-yl)phenyl]-4-(2-pyridinyl)-2-pyrimidinamine] |
| 200 nM | CC(=O)Nc1ccc(Nc2nccc(-c3cccs3)n2)cc1 [N-[4-[[4-(2-Thienyl)-2-pyrimidinyl]amino]-phenyl]acetamide] |
| 26800 nM | Cc1cc(-c2ccccn2)nc(Nc2ccccc2)n1 [4-Methyl-N-phenyl-6-(2-pyridinyl)-2-pyrimidinamine] |

| IC50 | Structure (SMILES) |
| --- | --- |
| < 48000 nM | Fc1ccc(Nc2nccc(-c3cccnc3)n2)c(F)c1 [N-(2,4-Difluorophenyl)-4-(3-pyridinyl)-2-pyrimidinamine] |
| 500 nM | NS(=O)(=O)c1cccc(Nc2nccc(-c3ccncc3)n2)c1 [3-[[4-(4-Pyridinyl)-2-pyrimidinyl]-amino]benzenesulfonamide] |
| 1200 nM | COc1cccc(Nc2nccc(-c3ccc(C)o3)n2)c1 [N-(3-Methoxyphenyl)-4-(5-methyl-2-furanyl)-2-pyrimidinamine] |
| 2900 nM | Fc1cccc(F)c1Nc1nccc(-c2ccncc2)n1 [N-(2,6-Difluorophenyl)-4-(4-pyridinyl)-2-pyrimidinamine] |
| 1300 nM | CN(C)CCCOc1ccc(Nc2nccc(-c3ccncc3)n2)cc1 [N-[4-[3-(Dimethylamino)propoxy]phenyl]-4-(4-pyridinyl)-2-pyrimidinamine] |
| < 48000 nM | CCc1ccc(Nc2nccc(-c3cccnc3)n2)cc1 [N-(4-Ethylphenyl)-4-(3-pyridinyl)-2-pyrimidinamine] |
| 10900 nM | Cc1cccc(Nc2nccc(-c3ccnc4ccccc34)n2)c1 [N-(3-Methylphenyl)-4-(4-quinolinyl)-2-pyrimidinamine] |
| 4100 nM | Cc1cc(C)cc(Nc2nccc(-c3cc(C)oc3C)n2)c1 [4-(2,5-Dimethyl-3-furanyl)-N-(3,5-dimethylphenyl)-2-pyrimidinamine] |
| 700 nM | Fc1cccc(Nc2nccc(-c3ccncc3)n2)c1 [N-(3-Fluorophenyl)-4-(4-pyridinyl)-2-pyrimidinamine] |
| < 48000 nM | Fc1ccc(Nc2nccc(-c3cccnc3)n2)cc1 [N-(4-Fluorophenyl)-4-(3-pyridinyl)-2-pyrimidinamine] |
| 6100 nM | Cc1cnc(Nc2ccc(N(C)C)cc2)nc1-c1ccco1 [N'-[4-(2-Furanyl)-5-methyl-2-pyrimidinyl]-N,N-dimethyl-1,4-benzenediamine] |
| 800 nM | C=CCOc1ccc(Nc2nccc(-c3cccnc3)n2)cc1 [N-[4-(2-Propenyloxy)phenyl]-4-(3-pyridinyl)-2-pyrimidinamine] |
| 4500 nM | CC(O)c1ccc(Nc2nccc(-c3cccnc3)n2)cc1 (stereo not drawn) [α-Methyl-4-[[4-(3-pyridinyl)-2-pyrimidinyl]amino]benzenemethanol] |
| 100 nM | CC(=O)N(C)c1ccc(Nc2nccc(-c3ccncc3)n2)cc1 [N-Methyl-N-[4-[[4-(4-pyridinyl)-2-pyrimidinyl]amino]phenyl]acetamide] |
| 1400 nM | Cc1cccc(Nc2nccc(-c3ccc(C)s3)n2)c1 [N-(3-Methylphenyl)-4-(5-methyl-2-thienyl)-2-pyrimidinamine] |
| 3300 nM | Oc1ccc(Nc2nccc(-c3ccncc3)n2)cc1 [4-[[4-(4-Pyridinyl)-2-primidinyl]amino]phenol] |
| 7700 nM | CCc1ccc(Nc2nccc(-c3ccncc3)n2)cc1 [N-(4-Ethylphenyl)-4-(4-pyridinyl)-2-pyrimidinamine] |
| 22000 nM | Fc1cccc(F)c1Nc1nccc(-c2cccnc2)n1 [N-(2,6-Difluorophenyl)-4-(3-pyridinyl)-2-pyrimidinamine] |
| 900 nM | Fc1cccc(Nc2nccc(-c3ccccn3)n2)c1 [N-(3-Fluorophenyl)-4-(2-pyridinyl)-2-pyrimidinamine] |

| Structure (SMILES) | IC50 |
| --- | --- |
| FC(F)(F)c1cccc(Nc2nccc(-c3ccncc3)n2)c1 [4-(4-Pyridinyl)-N-[3-(trifluoro-methyl)phenyl]-2-pyrimidinamine] | 32000 nM |

Same assay, conditions: concentration causing 50% inhibition of histamine release, by linear regression; active if IC50 ≦ 48 µM; dihydrochloride; read-out: IC50

| IC50 | Structure (SMILES) |
| --- | --- |
| 500 nM | CN(C)c1cccc(Nc2nccc(-c3ccccn3)n2)c1 [N,N-Dimethyl-N'-[4-(2-pyridinyl)-2-pyrimidinyl]-1,3-benzenediamine, dihydrochloride] |

Same assay, conditions: concentration causing 50% inhibition of histamine release, by linear regression; active if IC50 ≦ 48 µM; dinitrate

| Structure (SMILES) | IC50 |
| --- | --- |
| c1ccc(Nc2nccc(-c3ccncc3)n2)cc1 [N-Phenyl-4-(4-pyridinyl)-2-pyrimidinamine, dinitrate] | 1200 nM |

Same assay, conditions: concentration causing 50% inhibition of histamine release, by linear regression; active if IC50 ≦ 48 µM; phosphate; read-out: IC50

| Structure (SMILES) | IC50 |
| --- | --- |
| Cc1cc(C)cc(Nc2nccc(-c3ccccn3)n2)c1 [N-(3,5-Dimethylphenyl)-4-(2-pyridinyl)-2-pyrimidinamine, phosphate] | 300 nM |

Same assay, conditions: concentration causing 50% inhibition of histamine release, by linear regression; active if IC50 ≦ 48 µM; read-out: IC50

| Structure (SMILES) | IC50 |
| --- | --- |
| CN(C)c1ccc(Nc2nccc(-c3ccncc3)n2)cc1 [N-[4-(Dimethylamino)phenyl]-4-(4-pyridinyl)-2-pyrimidinamine] | 3800 nM |
| COc1ccc(Nc2nccc(-c3cccnc3)n2)cc1 [N-(4-Methoxyphenyl)-4-(3-pyridinyl)-2-pyrimidinamine] | 1400 nM |

From EP0233461B2, “4,5,6-Substituted-2-pyrimidinamines” (AMERICAN CYANAMID COMPANY, priority 1986, dated 1987)
